# Numbering of substitutions follows the chain as printed. Structures can show the parent of a compound that is named as a salt.
# How the values were obtained:
# AKR1C3 K104D [1] = biological target: T1, AKR1C3 K104D (Homo sapiens, UniProt P42330, K104D); assay: Specific activity after preincubation at 37 °C with cofactor; format: biochemical; details: alone roughly 50%
# T1 sequence (P42330 1-323 K104D): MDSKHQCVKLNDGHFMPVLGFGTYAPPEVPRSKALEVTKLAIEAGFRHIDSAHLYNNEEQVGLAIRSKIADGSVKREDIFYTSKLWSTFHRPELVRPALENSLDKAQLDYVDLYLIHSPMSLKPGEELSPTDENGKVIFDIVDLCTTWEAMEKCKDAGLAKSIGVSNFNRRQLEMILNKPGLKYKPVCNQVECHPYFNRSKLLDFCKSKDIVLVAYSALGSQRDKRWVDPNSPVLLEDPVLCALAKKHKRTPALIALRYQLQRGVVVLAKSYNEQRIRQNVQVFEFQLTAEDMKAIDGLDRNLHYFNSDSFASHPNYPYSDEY
# AKR1C3 = details: cited from earlier work
# AKR1C3 K104D [2] = biological target: T1, AKR1C3 K104D; assay: Kd for NAD; format: binding; details: read-out: Kd NADP+, 0.5 μM protein, pH 7.0, 25 °C, Morrison equation
# AKR1C3 H5Q = biological target: T2, AKR1C3 H5Q (Homo sapiens, UniProt P42330, H5Q); assay: Kd for NAD; format: binding; details: read-out: Kd NADP+, 0.5 μM protein, pH 7.0, 25 °C, Morrison equation
# T2 sequence (P42330 1-323 H5Q): T1 sequence (P42330 1-323 K104D) with H5Q, D104K
# AKR1C3 E77G = biological target: T3, AKR1C3 E77G (Homo sapiens, UniProt P42330, E77G); assay: Kd for NAD; format: binding; details: read-out: Kd NADP+, 0.5 μM protein, pH 7.0, 25 °C, Morrison equation
# T3 sequence (P42330 1-323 E77G): T1 sequence (P42330 1-323 K104D) with E77G, D104K
# AKR1C3 WT = biological target: T4, AKR1C3 WT (Homo sapiens, UniProt P42330); assay: Kd for NAD; format: binding; details: read-out: Kd NADP+, 0.5 μM protein, pH 7.0, 25 °C, Morrison equation
# T4 sequence (P42330 1-323): T1 sequence (P42330 1-323 K104D) with D104K
SMILES,"K104D activity remaining (% of activity at 0 min) (AKR1C3 K104D [1]; K104D preincubated at 37 °C with 2 mM NAD+, four hours)",binding affinity of NADP+ relative to NAD+ (AKR1C3) [times],Kd (AKR1C3 K104D [2]) [µM],Kd (AKR1C3 H5Q) [µM],Kd (AKR1C3 E77G) [µM],"K104D activity remaining (% of activity at 0 min) (AKR1C3 K104D [1]; K104D preincubated at 37 °C with 2 mM NADP+, over four hours) [%]",Kd (AKR1C3 WT) [µM]
"NC(=O)c1ccc[n+]([C@@H]2O[C@H](COP(=O)([O-])OP(=O)(O)OC[C@H]3O[C@@H](n4cnc5c(N)ncnc54)[C@H](O)[C@@H]3O)[C@@H](O)[C@H]2O)c1 [NAD+, nicotinamide adenine dinucleotide Grade II free acid]",roughly 75%,–,–,–,–,–,–
"NC(=O)c1ccc[n+]([C@@H]2O[C@H](COP(=O)([O-])OP(=O)(O)OC[C@H]3O[C@@H](n4cnc5c(N)ncnc54)[C@H](OP(=O)(O)O)[C@@H]3O)[C@@H](O)[C@H]2O)c1 [NADP+, nicotinamide adenine dinucleotide phosphate oxidized disodium salt]",–,~1000,0.1 ± 0.047,0.12 ± 0.033,0.12 ± 0.035,100,0.11 ± 0.017
